One assay has as its target 20S proteasome. Description: Inhibition of human erythrocytes 20S proteasome using QXL520-YRGITCSGRQK(5-FAM)-NH2 fluorogenic peptide as substrate preincubated for 10 mins followed by substrate addition and measured after 60 mins by HTRF assay. The settings on record: erythrocyte.
For assay [1], the target named is T1, Lon protease homolog, mitochondrial (Homo sapiens, UniProt P36776).
T1 sequence (P36776 whole entry): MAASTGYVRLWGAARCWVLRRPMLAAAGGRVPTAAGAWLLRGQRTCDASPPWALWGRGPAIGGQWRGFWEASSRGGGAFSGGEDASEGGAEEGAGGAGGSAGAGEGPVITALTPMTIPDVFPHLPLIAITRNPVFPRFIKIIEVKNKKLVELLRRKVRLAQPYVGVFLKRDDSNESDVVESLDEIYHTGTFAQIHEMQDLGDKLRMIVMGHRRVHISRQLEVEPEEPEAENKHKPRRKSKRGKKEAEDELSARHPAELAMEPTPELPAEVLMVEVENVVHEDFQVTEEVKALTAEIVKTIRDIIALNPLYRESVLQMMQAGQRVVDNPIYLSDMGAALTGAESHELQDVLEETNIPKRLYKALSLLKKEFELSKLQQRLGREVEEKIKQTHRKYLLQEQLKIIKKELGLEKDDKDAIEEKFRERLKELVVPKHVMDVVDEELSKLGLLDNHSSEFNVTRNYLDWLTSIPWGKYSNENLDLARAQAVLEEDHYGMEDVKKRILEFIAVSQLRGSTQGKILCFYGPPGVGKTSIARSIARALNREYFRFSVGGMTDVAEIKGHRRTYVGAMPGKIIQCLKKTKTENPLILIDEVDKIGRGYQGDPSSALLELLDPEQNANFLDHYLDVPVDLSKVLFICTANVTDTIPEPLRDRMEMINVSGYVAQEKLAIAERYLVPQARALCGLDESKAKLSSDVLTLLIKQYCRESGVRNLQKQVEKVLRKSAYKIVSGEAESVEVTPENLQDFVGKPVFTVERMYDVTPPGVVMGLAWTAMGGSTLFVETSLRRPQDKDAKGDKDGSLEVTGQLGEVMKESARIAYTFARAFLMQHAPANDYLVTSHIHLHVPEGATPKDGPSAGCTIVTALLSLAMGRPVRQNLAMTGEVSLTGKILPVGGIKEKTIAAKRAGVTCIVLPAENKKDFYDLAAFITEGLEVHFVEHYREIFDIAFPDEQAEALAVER
The assay can be described thus: Inhibition of LONP1 (unknown origin) using QXL520-YRGITCSGRQK(5-FAM)-NH2 peptide as substrate incubated for 50 mins in presence of ATP by HTRF assay. A general note: Time-resolved FRET reads energy transfer from a long-lived donor to a nearby acceptor.

In assay [2] the target is T2, Cobalamin trafficking protein CblD (Homo sapiens) (UniProt Q9H3L0).
T2 sequence (whole entry): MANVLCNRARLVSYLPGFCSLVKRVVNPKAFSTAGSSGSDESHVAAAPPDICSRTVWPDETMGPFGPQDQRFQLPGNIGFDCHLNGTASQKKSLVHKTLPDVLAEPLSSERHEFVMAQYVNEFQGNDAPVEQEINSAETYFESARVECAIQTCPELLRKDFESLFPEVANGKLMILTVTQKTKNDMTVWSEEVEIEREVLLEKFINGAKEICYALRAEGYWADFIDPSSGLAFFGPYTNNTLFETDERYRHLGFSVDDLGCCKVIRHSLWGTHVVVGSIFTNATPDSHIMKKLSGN
Description: Binding affinity to MMADHC in human LONP1 dependent Calu-6 cells assessed as increase in protein abundance by HTRF assay relative to control.

Assay [3] addresses T2, Cobalamin trafficking protein CblD (Homo sapiens). Description: Binding affinity to MMADHC in human Flp-In-T-REx-293 stably expressing 3X-FLAG-tagged LOPN1 assessed as increase in protein abundance by mass spectrometric analysis.
For assay [4] the target is unchanged. Description: Binding affinity to MMADHC in human LONP1 dependent NCI-H1568 cells assessed as increase in protein abundance relative to control. It is filed as cell-based.
Assay [5] has the same target. Description: Binding affinity to MMADHC in human LONP1 dependent NCI-H1944 cells assessed as increase in protein abundance at 10 uM by WES analysis relative to control. It is filed as cell-based.

Active and inactive are the calls of the source. The rule behind the calls is not given here. Where only a bound is given, the exact number is not on record here.

The term IC50 denotes the concentration needed to halve the response being measured. With `CC(C)C[C@H](NC(=O)[C@@H](CC1CCCCC1)NC(=O)c1cnccn1)B(O)O`, the IC50 against 20S proteasome worked out at 843 nM; in assay [1], 137 nM.

For `CCC[C@@H](NC(=O)c1cnccn1)C(=O)N[C@@H](CC1CCCCC1)B(O)O`, the IC50 against 20S proteasome was greater than 10000 nM; in assay [1] it was 136 nM.

Take `CC(C)C[C@H](NC(=O)C(C)(C)NC(=O)c1cnccn1)B(O)O`: the IC50 in assay [1] is 6200 nM.

With `CCC[C@@H](NC(=O)c1cnccn1)C(=O)N[C@@H](CCc1ccccc1)B(O)O`, the half-inhibitory concentration (IC50) at 20S proteasome is greater than 10000 nM; in assay [1], 92 nM.

On to `CC(C)CCC[C@H](NC(=O)[C@@H](Cc1ccccc1)NC(=O)c1cnccn1)B(O)O`, for which the figures for the IC50 (on 20S proteasome; in assay [1]) were 1040 nM and 65 nM, respectively.

Take `O=C(N[C@H](Cc1ccccc1)C(=O)N[C@@H](CC1CCCCC1)B(O)O)c1cnccn1`: the half-inhibitory concentration (IC50) was 541 nM at 20S proteasome and 92 nM in assay [1].

For the compound `O=C(N[C@H](Cc1ccccc1)C(=O)N[C@@H](CCCCCBr)B(O)O)c1cnccn1`, the IC50 stood at 1940 nM against 20S proteasome and 77 nM in assay [1].

In the case of `CCCC[C@H](NC(=O)[C@@H](CCC)NC(=O)c1cnccn1)B(O)O`, the results for the IC50 (against 20S proteasome; in assay [1]) were greater than 10000 nM and 38 nM, respectively.

Take `CCC[C@@H](NC(=O)c1cnccn1)C(=O)N[C@@H](CC(C)C)B(O)O`: the values for the 50% inhibitory concentration (IC50) (against 20S proteasome; in assay [1]) were greater than 10000 nM and 187 nM, respectively.

With `CCC[C@@H](NC(=O)c1oc(C)nc1C)C(=O)N[C@@H](CCCc1ccccc1)B(O)O`, the fold change (FC) in assay [2], in assay [4] and in assay [5] was 30 in each case. Also, the result in assay [3] was Active. Further, the values for the IC50 (at 20S proteasome; in assay [1]) were greater than 10000 nM and 59 nM, respectively.

Regarding `O=C(N[C@H](Cc1ccccc1)C(=O)N[C@@H](Cc1ccccc1)B(O)O)c1cnccn1`, the IC50 at 20S proteasome is 679 nM; in assay [1], 109 nM.

On to `CCC[C@@H](NC(=O)c1cnccn1)C(=O)N[C@@H](CCCc1ccccc1)B(O)O`, for which the IC50 is greater than 10000 nM against 20S proteasome and 17 nM in assay [1].

In the case of `O=C(N[C@H](Cc1ccccc1)C(=O)N[C@@H](CCc1ccccc1)B(O)O)c1cnccn1`, the IC50 was 262 nM against 20S proteasome and 34 nM in assay [1].

As to `CC(C)C[C@H](NC(=O)[C@H](NC(=O)c1cnccn1)C(C)(C)C)B(O)O`, the IC50 against 20S proteasome is greater than 10000 nM; in assay [1] it was 2850 nM.

`CCCC[C@@H](NC(=O)c1cnccn1)C(=O)N[C@@H](CC(C)C)B(O)O`: the half-inhibitory concentration (IC50) at 20S proteasome is greater than 10000 nM; in assay [1], 93 nM.

For the compound `CC[C@@H](NC(=O)c1cnccn1)C(=O)N[C@@H](CC(C)C)B(O)O`, the half-inhibitory concentration (IC50) against 20S proteasome was greater than 10000 nM; in assay [1] it was 408 nM.

Take `CCC[C@@H](NC(=O)c1cnccn1)C(=O)N[C@@H](Cc1ccccc1)B(O)O`: the results for the half-inhibitory concentration (IC50) (against 20S proteasome; in assay [1]) were greater than 10000 nM and 556 nM, respectively.

As to `O=C(N[C@H](Cc1ccccc1)C(=O)N[C@@H](CCCc1ccccc1)B(O)O)c1cnccn1`, the IC50 on 20S proteasome is 259 nM; in assay [1] it was 18 nM.

For the compound `CC(C)C[C@H](NC(=O)[C@H](NC(=O)c1cnccn1)C(C)C)B(O)O`, the half-inhibitory concentration (IC50) against 20S proteasome was determined as 3970 nM; in assay [1], 546 nM.

Take `CC(C)C[C@H](NC(=O)[C@@H](C)NC(=O)c1cnccn1)B(O)O`: the IC50 is 2680 nM on 20S proteasome and 433 nM in assay [1].

Values taken from ChEMBL document CHEMBL4823253, “Structure-Based Design of Selective LONP1 Inhibitors for Probing In Vitro Biology” (J Med Chem, 2021).
